“And” between values parts separate entries of the source, which are not always exact repeats. Equal values may be shown once. Read-outs that look alike come from different tables or passages of the source.
Legend:
[1] = system: DC-3F/ADII cells
[2] = system: CCRF-CEM/VM-1 cells; assay: Cytotoxicity toward VM-26-resistant CCRF-CEM/VM-1 cells (mutated Topo II gene); format: cell-based, human
[3] = system: CCRF-CEM cells
[4] = system: CCRF-CEM/VBL100 cells
[5] = system: CCRF-CEM cells; assay: Influx of [3H]VP-16 in CCRF-CEM cells; format: cell-based, human; settings: 100 μM, in words
[6] = system: CCRF-CEM cells; assay: Cytotoxicity / growth inhibition of CCRF-CEM leukemic cells
[7] = system: P388/DX tumor; assay: Combination therapy of adriamycin & 5-N-acetyl-ardeemin or verapamil in B6D2F1 mice bearing P388/DX tumor; settings: VPML 70 mg/kg (then 35);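 further: male BDF mice implanted intraperitoneally with P388/DX cells, 10^6 per mouse, dosed from day 1 on a QDX4, QWX2 schedule, five mice per dose group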
Description: ^a Male BDF mice were inoculated P388/DX, 10^6 cells/mouse, i.p.
starting day 1, QDX4, QWX2. There were five mice at every dose and ten

[8] = system: P388/O tumor; assay: Combination therapy of adriamycin & 5-N-acetyl-ardeemin or verapamil in B6D2F1 mice bearing P388/O tumor; settings: VPML 70 mg/kg (then 35);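 further: male BDF mice carrying P388/O given intraperitoneally, dosing begun on day 1 on a QDX4, QWX2 schedule, five animals per dose level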
Description: ^a Male BDF mice were inoculated P388/O, 10^6 cells/mouse, i.p. a
starting day 1, QDX4, QWX2.

[9] = system: DC-3F hamster lung cells; assay: Cytotoxicity toward DC-3F hamster lung cells
[10] = system: DC-3F/ADX cells; assay: Cytotoxicity toward DC-3F/ADX cells; format: cell-based, hamster
[11] = system: DC-3F/ADII cells; assay: cells; settings: Mesocricetus auratus, DC3F, read-out: IC50 (B)
[12] = system: CCRF-CEM/VLB-100 cells; assay: Intracellular accumulation of [3H]vinblastine in CCRF-CEM/VLB-100 cells; format: cell-based, human; settings: 30 μM
Procedure: (§1) *Cells were preloaded with [^3 H]
(§2) times (or without wash) with 100 ml cold medium to remove extracellular
(§3) with or without a reverse prenyl compound or an MDRreversing agent. Cells
(§4) were then separated from radioactive medium by microfuge oillayer method.
(§5) Extracellular space counts carried down # by cells (^3 HInulin space
(§6) were subtracted from the total radioactive counts.

[13] = system: CCRF-CEM/VBL100 cells; assay: cells; settings: Homo sapiens
[14] = system: CCRF-CEM cells; assay: Intracellular accumulation of [3H]vinblastine in CCRF-CEM cells; format: cell-based, human; settings: 30 μM
Procedure: as §1, §2, §3, §4, §5, §6

[15] = read-out: IC50 of reversing agent, Table 6B, CCRF-CEM/VBL
[16] = Homo sapiens, Table 6, CCRF-CEM
[17] = Homo sapiens, read-out: IC50, mean ± spread, Table 5A, CCRF-CEM, mean
[18] = Homo sapiens, CCRF-CEM, Table 5A, CCRF-CEM/VM-1, read-out: IC50
[19] = read-out: IC50, mean ± spread, Table 5A, CCRF-CEM/VLB, mean
[20] = Homo sapiens, Table 5A, single determinations
[21] = Homo sapiens, read-out: IC50 of reversing agent, Table 6B, CCRF-CEM
[22] = Table 5A, single determinations
[23] = Table 5A, CCRF-CEM/VLB, * collaterally sensitive vs parent

SMILES	IC50 [6, 16]	IC50 [6, 17]	[3H]vinblastine accumulation ([12]; washed)	[3H]vinblastine accumulation ([12]; without wash)	IC50 [2, 18]	IC50 ([13]; Table 6, CCRF-CEM/VBL)	IC50 [13, 19]	[3H]vinblastine accumulation ([14]; washed)	[3H]vinblastine accumulation ([14]; without wash)	IC50 [6, 20]	IC50 [13, 23]	other results
COc1cc(NS(C)(=O)=O)ccc1Nc1c2ccccc2nc2ccccc12 [M-AMSA, reference compound]												IC50 ([1]; dc-3f/adii cells): 0.032 µM; IC50 ([2]; ccrf-cem/vm-1 cells): 2.55 µM; IC50 [3]: 0.184 µM; IC50 ([4]; ccrf-cem/vbl100 cells): 0.656 µM
COc1ccc(CCN(C)CCCC(C#N)(c2ccc(OC)c(OC)c2)C(C)C)cc1OC (centres unmarked) [Verapamil, verapamil]												VP-16 accumulation [5]: also increased VP-16 accumulation; collateral sensitivity ([1]; in words): Collateral sensitivity is also observed; IC50 ([6]; read-out: IC50 of reversing agent, Table 6B): 296 µM; IC50 ([2]; Table 6B, CCRF-CEM/VM-1, read-out: IC50 of reversing agent): 118 µM; % ILS [7]: +5%; MST [7]: 7.9 days; Days survived ([7]; individual mice 1-5): 6.5 days and 7.25 days and 8.25 days and 9.25 days; % ILS [8]: +1%; MST [8]: 7.7 days; Days survived ([8]; individual mice 1-5): 7.0 days and 8.0 days and 8.6 days; IC50 [4, 15]: 118 µM
C=CC(C)(C)C12CC3C(=O)NCC(=O)N3C1Nc1ccccc12 (centres unmarked) [Desmethyl-DKP]												(B)/(A) [1]: 1.3 X; IC50 ([9]; Mesocricetus auratus, DC3F, read-out: IC50 (A), mean ± spread, mean of the determinations): 131 ± 14.7 µM; IC50 ([9]; Mesocricetus auratus, DC3F, read-out: IC50 (A), single determinations): 116 µM; IC50 ([9]; read-out: IC50 (A), single determinations): 145 µM; IC50 ([10]; DC3F/ADX, DC-3F/ADX): 199 µM; (C)/(A) ([10]; IC50 ratio DC-3F/ADX to DC-3F, * collaterally sensitive): 1.5 X; IC50 [11]: 103 µM
C=CC(C)(C)C12CC3C(=O)NC(C)C(=O)N3C1N(C(C)=O)c1ccccc12 (centres unmarked) [5N-Ac-DKP 14(E), N-acetyldiketopiperazine]	225 µM	397 ± 171 µM	3.59 fmole/10^3 cells	12.88 fmole/10^3 cells	32.4 µM	541 µM	344 ± 197 µM	29.54 fmole/10^3 cells	35.08 fmole/10^3 cells			
C=CC(C)(C)C12CC3C(=O)NC(C)C(=O)N3C1Nc1ccccc12 (centres unmarked) [Diketopiperazine 14(B), Diketopiperazine]	148 µM	132 ± 11.5 µM	3.33 fmole/10^3 cells	10.81 fmole/10^3 cells		147 µM	94.6 ± 40.8 µM	28.51 fmole/10^3 cells	35.84 fmole/10^3 cells	143 µM		IC50 [6, 21]: 143 µM; IC50 ([6]; Table 5A, single determinations, listed as DKP 14(B)): 120 µM; IC50 ([2]; Homo sapiens, CCRF-CEM): 178 µM; IC50 ([2]; Homo sapiens, CCRF-CEM, read-out: IC50 of reversing agent): 178 µM; IC50 [13, 15]: 135 µM
C=CC(C)(C)C12CC3C(=O)NC(C)C(=O)N3C1N(C(=O)C(F)(F)F)c1ccccc12 (centres unmarked) [5N-F3 -Ac-DKP 14F(E), 5N-trifluoroacetyl diketopiperazine]		32.2 ± 0.7 µM	5.77 fmole/10^3 cells	23.34 fmole/10^3 cells	41 µM			28.75 fmole/10^3 cells	33.34 fmole/10^3 cells	32.8 µM	24.6 µM	IC50 [6, 21]: 32.8 µM; IC50 [6, 22]: 31.5 µM; IC50 ([2]; Homo sapiens, CCRF-CEM, Table 6B, CCRF-CEM/VM-1, read-out: IC50 of reversing agent): 40.9 µM; IC50 [13, 15]: 24.8 µM
C=CC(C)(C)C12CC3C(=O)N(C(C)=O)C(C)C(=O)N3C1N(C(C)=O)c1ccccc12 (centres unmarked) [Imide Di-Ac-DKP Amide 14(D), imide diacetate diketopiperazine]	62.5 µM	83.4 ± 23.4 µM	4.01 fmole/10^3 cells	15.92 fmole/10^3 cells	81.4 µM	37.1 µM	54.7 ± 3.3 µM	28.36 fmole/10^3 cells	34.54 fmole/10^3 cells	103 µM	51.4 µM	IC50 [6, 22]: 64 µM; IC50 ([2]; Homo sapiens, CCRF-CEM, Table 5A, CCRF-CEM/VM-1, mean, read-out: IC50, mean ± spread): 85.2 ± 4 µM; IC50 ([2]; Table 5A, CCRF-CEM/VM-1, read-out: IC50): 89 µM; IC50 [4, 23]: 58 µM
C=CC(C)(C)C12CC3C(=O)N(C(=O)OC(C)(C)C)C(C)C(=O)N3C1Nc1ccccc12 (centres unmarked) [Imide-BOC-DKP 14(C), imide-BOC diketopiperazine]	88.7 µM	204 ± 116 µM	6.10 fmole/10^3 cells	25.44 fmole/10^3 cells	205 µM	65.4 µM	92.9 ± 27.3 µM	30.29 fmole/10^3 cells	35.56 fmole/10^3 cells		65.4 µM	IC50 [4, 23]: 120 µM
